These results are taken from patent US20090192164A1, “Treating agent of inflammatory bowel disease” (ASKA Pharmaceutical Co., Ltd., priority 2006, published 2009).

Data set [1] relates to TNF-α production in THP-1 cells. Nature of the data set: TNF-α production-inhibiting activity in LPS-stimulated THP-1 cells. The settings on record: Homo sapiens, 2 hours, ELISA. The data set is classed as cell-based. The protocol:
(2) Measurement of TNF-α Production-Inhibiting Activity:
THP-1 (purchased from Dainippon Pharmaceuticals Co.) which are human-derived cultured cells, were suspended in RPMI1640 culture medium (10% fetal bovine serum, containing 100 units/mL penicillin) (1×10^5 cells/mL). Onto a 24-well culture plate, 1.6 mL of the THP-1 cell suspension was inoculated, and further 0.2 mL of the test substance as dissolved in RPM11640 culture medium and 0.2 mL of LPS (E. Coli 055: B5-derived, dissolved in RPM11640 culture medium, Difco) at a concentration of 10 μg/mL were added, followed by 2 hours' cultivation under the conditions of 37° C. and 5% CO2. The supernatant obtained upon centrifugation (500×g, 5 min.) was assayed with ELISA (Amersham Bioscience, TNF-α: Human, ELISA Biotrak System) to quantify TNF-α. The concentration of each test substance required to inhibit TNF-α production by 50% (IC50) was determined as follows. First, TNF-α production inhibition (%) values at various concentrations were determined by the following formula: […]
The TNF-α production inhibition (%) obtained by the above formula and the concentration of the test substance in that occasion were computed on Prism 4 for Windows Ver 4.02 (Graph Pad Software, Inc.) to calculate IC50 value.
A general note: ELISA stands for enzyme-linked immunosorbent assay.

A short description of data set [2]: Compounds' extinction rates in human liver S9. The class given is in vitro ADME. The settings on record: human liver S9 0.5 mg protein/mL, compound 1 μmol/L, 37° C. Here is the method: (3) Measurement of the Compounds' Extinction Rates:
To a potassium phosphate buffer solution (50 mmol/L, pH […]) containing NADPH production system (formed of 3.3 mmol/L MgCl2, 3.3 mmol/L glucose-6-phosphate, 1.3 mmol/L β-NAPD^+ and 0.4 unit/mL glucose-6-phosphate dehydrogenase), each test compound was added (in which occasion the final concentration was made 1 μmol/L) and incubated at 37° C. for 2 minutes. After the incubation, a suspension of human liver S9 (supernatant fraction obtained by centrifugation of crushed human liver cells at 9000×g) in potassium phosphate buffer solution was added to a final concentration of 0.5 mg protein/mL. This liquid reaction mixture was incubated at 37° C. for 5 minutes, to which 4 volume times thereof of acetonitrile was added, mixed, and cooled with ice. After the cooling with ice, the mixture was centrifuged (2000×g, 10 min.) and a part of the supernatant was recovered and analyzed with LSIMS/MS to calculate the residual ratio of unchanged substance in the reaction solution. The results are shown in the following Table B concurrently with the results of above (2) measurement of TNF-α production-inhibiting activity.

Turning to `O=C(Cc1ccccc1Cl)Nc1onc(-c2ccc(F)cc2)c1-c1ccncn1` [Compound B-1, 5-[(2-Chlorophenyl)acetylamino]-3-(4-fluorophenyl)-4-(4-pyrimidinyl)isoxazole], inhibition in data set [1] was half-maximal at 36.1 nM (IC50). In addition, the “Parent compound remaining after 5 min in human liver S9 (%)” value (shortened to “Parent compound remaining … (%)”) in data set [2] worked out at 5.8%.

For `O=C(Cc1c(F)cccc1Cl)Nc1onc(-c2ccc(F)cc2)c1-c1ccncn1` [Compound B-2, 5-[(2-Chloro-6-fluorophenyl)acetylamino]-3-(4-fluorophenyl)-4-(4-pyrimidinyl)isoxazole], half-maximal inhibition in data set [1] (IC50) required 67.9 nM. Moreover, the “Parent compound remaining … (%)” value in data set [2] came out at 16.1%.

Take `O=C(Cc1ccccc1Cl)Nc1onc(-c2ccc(Cl)cc2)c1-c1ccncn1` [Compound B-3, 3-(4-Chlorophenyl)-5-[(2-chlorophenyl)acetylamino]-4-(4-pyrimidinyl)isoxazole]: in data set [1], the 50% inhibitory concentration (IC50) – broadly, the concentration that inhibits the measured activity by half – came to 48.7 nM. Moreover, the “Parent compound remaining … (%)” value in data set [2] came out at 53.1%.

The molecule `O=C(Cc1ccccc1Cl)Nc1onc(-c2ccc(F)cc2F)c1-c1ccncn1` [Compound B-4, 5-[(2-Chlorophenyl)acetylamino]-3-(2,4-difluorophenyl)-4-(4-pyrimidinyl)isoxazole] registered an IC50 in data set [1] of 32.1 nM. For the same molecule, in data set [2], the “Parent compound remaining … (%)” value is listed as 20.4%.

In data set [1], `Cc1cccc(CC(=O)Nc2onc(-c3ccc(F)cc3F)c2-c2ccncn2)c1` [Compound B-5, 3-(2,4-Difluorophenyl)-5-[(3-methylphenyl)acetylamino]-4-(4-pyrimidinyl)isoxazole] gave an IC50 of 139 nM. Further, in data set [2], the “Parent compound remaining … (%)” value is on record as 46.6%.

Consider `COc1ccc(-c2noc(NC(=O)Cc3ccccc3Cl)c2-c2ccncn2)c(F)c1` [Compound B-6, 5-[(2-Chlorophenyl)acetylamino]-3-(2-fluoro-4-methoxyphenyl)-4-(4-pyrimidinyl)isoxazole], for which it took 28.5 nM to reach half-maximal inhibition in data set [1] (IC50). Also, in data set [2], the “Parent compound remaining … (%)” value was 24.1%.

Take `Cc1cccc(-c2noc(NC(=O)Cc3ccccc3Cl)c2-c2ccncn2)c1` [Compound B-7, 5-[(2-Chlorophenyl)acetylamino]-3-(3-methylphenyl)-4-(4-pyrimidinyl)isoxazole]: in data set [1], the concentration for half-maximal inhibition (IC50) came to 36.7 nM. The “Parent compound remaining … (%)” value in data set [2] is 21.2%.

`Cc1cccc(-c2noc(NC(=O)Cc3ccccc3Br)c2-c2ccncn2)c1` [Compound B-8, 5-[(2-Bromophenyl)acetylamino]-3-(3-methylphenyl)-4-(4-pyrimidinyl)isoxazole]: inhibition in data set [1] was half-maximal at 49.2 nM (IC50). Moreover, in data set [2], the “Parent compound remaining … (%)” value was found to be 43.6%.

The molecule `Cc1cccc(-c2noc(NC(=O)Cc3ccccc3C)c2-c2ccncn2)c1` [Compound B-9, 3-(3-Methylphenyl)-5-[(2-methylphenyl)acetylamino]-4-(4-pyrimidinyl)isoxazole] came in with a concentration for half-maximal inhibition (IC50) in data set [1] of 13.4 nM. The “Parent compound remaining … (%)” value in data set [2] came to 59.9%.

In the case of `Cc1cccc(CC(=O)Nc2onc(-c3cccc(C)c3)c2-c2ccncn2)c1` [Compound B-10, 3-(3-Methylphenyl)-5-[(3-methylphenyl)acetylamino]-4-(4-pyrimidinyl)isoxazole], the half-maximal inhibitory concentration (IC50) in data set [1] is 152 nM. Also, in data set [2], the “Parent compound remaining … (%)” value is listed as 38.5%.

In turn, `Cc1ccc(F)c(-c2noc(NC(=O)Cc3ccccc3)c2-c2ccncn2)c1` [Compound B-11, 3-(2-Fluoro-5-methylphenyl)-5-(phenylacetylamino)-4-(4-pyrimidinyl)isoxazole] yielded a half-inhibitory concentration (IC50) in data set [1] of 90.5 nM. Further, in data set [2], the “Parent compound remaining … (%)” value is recorded as 39.8%.

`COc1cccc(CC(=O)Nc2onc(-c3ccc(F)c(C)c3)c2-c2ccncn2)c1` [Compound B-12, 5-[(3-Methoxyphenyl)acetylamino]-3-(3-methyl-4-fluorophenyl)-4-(4-pyrimidinyl)isoxazole] returned an IC50 in data set [1] of 52.6 nM. For the same molecule, the “Parent compound remaining … (%)” value in data set [2] is given as 33.1%.

For `Cc1cc(-c2noc(NC(=O)Cc3ccccc3C)c2-c2ccncn2)ccc1F` [Compound B-13, 3-(3-Methyl-4-fluorophenyl)-5-[(2-methylphenyl)acetylamino]-4-(4-pyrimidinyl)isoxazole], half-maximal inhibition in data set [1] (IC50) was put at 13.7 nM. For the same molecule, the “Parent compound remaining … (%)” value in data set [2] is reported as 52.6%.

In data set [1], `Cc1cccc(-c2noc(NC(=O)CCc3ccccc3)c2-c2ccncc2)c1` [Compound B-14, 3-(3-Methylphenyl)-5-(3-phenylpropionylamino)-4-(4-pyridyl)isoxazole] yielded a 50% inhibitory concentration (IC50) of 65.5 nM. Besides, the “Parent compound remaining … (%)” value in data set [2] is 17.6%.

Consider `Cc1cccc(-c2noc(NC(=O)CCc3ccccc3C)c2-c2ccncc2)c1` [Compound B-15, 3-(3-Methylphenyl)-5-[(2-methylphenyl)propionylamino]-4-(4-pyridyl)isoxazole], for which the IC50 in data set [1] amounted to 52.9 nM. In addition, the “Parent compound remaining … (%)” value in data set [2] is recorded as 23.3%.

With `Cc1ccc(F)c(-c2noc(NC(=O)CCc3cccc(Cl)c3)c2-c2ccncc2)c1` [Compound B-16, 5-[(3-Chlorophenyl)propionylamino]-3-(2-fluoro-5-methyl-phenyl)-4-(4-pyridyl)isoxazole], the IC50 in data set [1] is 58.1 nM. For the same molecule, the “Parent compound remaining … (%)” value in data set [2] stood at 50.5%.

For the molecule `Cc1cc(-c2noc(NC(=O)Cc3ccccc3)c2-c2ccncc2)ccc1F` [Compound B-17, 3-(4-Fluoro-3-methylphenyl)-5-(phenylacetylamino)-4-(4-pyridyl)isoxazole], 78.1 nM corresponded to half-maximal inhibition in data set [1] (IC50). Also, the “Parent compound remaining … (%)” value in data set [2] was 58.0%.

In turn, `Cc1cc(-c2noc(NC(=O)Cc3ccccc3Cl)c2-c2ccncc2)ccc1F` [Compound B-18, 5-[(2-Chlorophenyl)acetylamino]-3-(4-fluoro-3-methylphenyl)-4-(4-pyridyl)isoxazole] had an IC50 in data set [1] of 85.2 nM. Moreover, the “Parent compound remaining … (%)” value in data set [2] is listed as 59.7%.

As for `Cc1cc(-c2noc(NC(=O)CCc3ccccc3)c2-c2ccncc2)ccc1F` [Compound B-19, 3-(4-Fluoro-3-methylphenyl)-5-(3-phenylpropionylamino)-4-(4-pyridyl)isoxazole], the 50% inhibitory concentration (IC50) in data set [1] came to 66 nM. Further, the “Parent compound remaining … (%)” value in data set [2] turned out to be 20.1%.

`CCCn1nc(-c2ccc(F)cc2)c(-c2ccncc2)c1C(=O)OCc1ccccc1Cl` [Compound B-20]: half-maximal inhibition in data set [1] (IC50) was put at 83.3 nM. Further, in data set [2], the “Parent compound remaining … (%)” value turned out to be 77.0%.

For `CCn1nc(-c2ccc(F)cc2)c(-c2ccncn2)c1C(=O)OCc1ccc(Cl)cc1Cl` [Compound B-21], it took 61.5 nM to reach half-maximal inhibition in data set [1] (IC50). Moreover, in data set [2], the “Parent compound remaining … (%)” value came to 56.4%.

On to `Cc1cccc(-c2nn(C)c(COC(=O)c3ccccc3)c2-c2ccncc2)c1` [Compound B-22], for which it took 45.5 nM to reach half-maximal inhibition in data set [1] (IC50). Also, the “Parent compound remaining … (%)” value in data set [2] stood at 25.5%.

On to `CCn1nc(-c2cccc(C)c2)c(-c2ccncc2)c1COC(=O)c1ccccc1` [Compound B-23], for which the half-maximal inhibitory concentration (IC50) in data set [1] was 26.5 nM. Moreover, in data set [2], the “Parent compound remaining … (%)” value was 28.3%.
